Source: ChEMBL document CHEMBL2375343, “(4-Phenoxyphenyl)tetrazolecarboxamides and related compounds as dual inhibitors of fatty acid amide hydrolase (FAAH) and monoacylglycerol lipase (MAGL)” (Eur J Med Chem, 2013)
Active and inactive are the calls of the source. The calls are words filed in the database; no cut-off is given here.

biological target: T1, Monoglyceride lipase (Homo sapiens, UniProt Q99685); test: Inhibition of human recombinant MAGL-mediated 1,3-dihydroxypropan-1-yl 4-pyren-1-ylbutanoate conversion to 4-pyren-1-ylbutanoic acid preincubated for 15 mins measured after 45 mins by HPLC analysis; details: not given
T1 sequence (Q99685 whole entry): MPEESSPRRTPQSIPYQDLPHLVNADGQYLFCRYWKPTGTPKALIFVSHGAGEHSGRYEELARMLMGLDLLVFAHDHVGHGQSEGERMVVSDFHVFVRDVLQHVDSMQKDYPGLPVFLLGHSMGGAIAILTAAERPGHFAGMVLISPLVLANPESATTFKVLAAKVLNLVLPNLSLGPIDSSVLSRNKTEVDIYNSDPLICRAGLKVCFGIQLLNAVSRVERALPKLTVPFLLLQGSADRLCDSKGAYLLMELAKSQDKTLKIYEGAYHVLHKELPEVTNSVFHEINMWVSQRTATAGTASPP

SMILES	IC50 [µM]
CN(C)C(=O)n1nnnc1Cc1ccc(-c2ccccc2)cc1	0.29
CN(C)C(=O)n1nnc(Cc2ccc(-c3ccccc3)cc2)n1	0.006
O=C1C=CC(=O)N1Cc1ccc(Oc2ccccc2)cc1	> 10
COc1nn(-c2ccc(Oc3ccccc3)cc2)c(=O)o1	0.31
COc1nn(-c2ccc(NC(=O)OCc3ccccc3)c(C)c2)c(=O)o1	0.48

biological target: T2, Fatty-acid amide hydrolase 1 (Homo sapiens, UniProt O00519); test: Inhibition of FAAH (unknown origin); details: not given
T2 sequence (O00519 whole entry): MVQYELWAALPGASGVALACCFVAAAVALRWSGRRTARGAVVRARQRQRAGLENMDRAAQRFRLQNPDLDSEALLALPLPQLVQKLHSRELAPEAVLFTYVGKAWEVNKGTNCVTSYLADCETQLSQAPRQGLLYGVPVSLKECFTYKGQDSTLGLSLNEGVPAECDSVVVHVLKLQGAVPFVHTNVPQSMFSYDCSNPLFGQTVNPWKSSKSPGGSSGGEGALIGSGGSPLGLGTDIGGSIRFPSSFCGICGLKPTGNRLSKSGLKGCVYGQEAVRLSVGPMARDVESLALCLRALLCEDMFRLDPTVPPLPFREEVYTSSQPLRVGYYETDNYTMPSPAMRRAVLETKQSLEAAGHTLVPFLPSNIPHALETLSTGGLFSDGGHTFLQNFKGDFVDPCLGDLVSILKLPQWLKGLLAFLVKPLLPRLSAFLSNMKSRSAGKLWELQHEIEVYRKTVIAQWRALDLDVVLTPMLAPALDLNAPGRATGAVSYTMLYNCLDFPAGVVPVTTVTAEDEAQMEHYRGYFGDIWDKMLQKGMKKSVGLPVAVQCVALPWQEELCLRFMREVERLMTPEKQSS

SMILES	IC50 [µM]
COc1nn(-c2ccc(Oc3ccccc3)cc2)c(=O)o1	0.065
COc1nn(-c2ccc(NC(=O)OCc3ccccc3)c(C)c2)c(=O)o1	0.076

test system: not listed separately; test: Selectivity ratio of IC50 for human recombinant MAGL to IC50 for FAAH in Sprague-Dawley rat brain microsomes; details: Microsome

SMILES	Ratio IC50
CN(C)C(=O)n1nnnc1Cc1ccc(-c2ccccc2)cc1	60

test system: not listed separately; test: Metabolic stability in Wistar rat liver S9 fraction at 20 uM after 30 mins by HPLC analysis; assay type: ADME, subcellular; details: read-out: Stability

SMILES	remaining at 0.5 h, 20 µM [%]
CC(C)N(C(=O)n1nnc(-c2ccc(Oc3ccccc3)cc2)n1)C(C)C	27
CN(C)C(=O)n1nnc(-c2ccc(Oc3ccccc3)cc2)n1	0
CCN(CC)C(=O)n1nnc(-c2ccc(Oc3ccccc3)cc2)n1	0

biological target: T3, Fatty-acid amide hydrolase 1 (Rattus norvegicus, UniProt P97612); test: Inhibition of FAAH in Sprague-Dawley rat brain microsomes assessed as N-(2-hydroxyethyl)-4-pyren-1-ylbutanamide conversion to 4-pyren-1-ylbutanoic acid preincubated for 10 mins measured after 45 mins by HPLC analysis; details: not given
T3 sequence (P97612 whole entry): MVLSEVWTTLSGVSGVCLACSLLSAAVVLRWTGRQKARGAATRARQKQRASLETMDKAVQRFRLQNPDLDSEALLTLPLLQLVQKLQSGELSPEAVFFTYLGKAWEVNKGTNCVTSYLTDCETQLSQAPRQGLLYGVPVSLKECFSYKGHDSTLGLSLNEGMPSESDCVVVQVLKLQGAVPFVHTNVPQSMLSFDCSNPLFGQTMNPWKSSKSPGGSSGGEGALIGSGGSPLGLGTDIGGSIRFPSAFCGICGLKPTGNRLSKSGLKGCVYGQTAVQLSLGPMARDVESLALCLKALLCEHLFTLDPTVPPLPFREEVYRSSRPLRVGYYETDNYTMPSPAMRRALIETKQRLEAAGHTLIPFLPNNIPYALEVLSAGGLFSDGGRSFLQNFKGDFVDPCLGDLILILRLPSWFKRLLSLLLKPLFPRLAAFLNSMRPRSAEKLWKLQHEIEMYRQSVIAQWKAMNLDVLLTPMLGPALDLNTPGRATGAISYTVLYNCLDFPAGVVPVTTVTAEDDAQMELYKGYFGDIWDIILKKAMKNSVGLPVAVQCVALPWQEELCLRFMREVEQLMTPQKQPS

SMILES	IC50 [µM]
CN(C)C(=O)n1nnnc1Cc1ccc(Oc2ccccc2)cc1	0.006
CN(C)C(=O)n1nnc(-c2ccc(Cn3cccc3)cc2)n1	0.011
CN(C)C(=O)n1nnc(-c2ccc(Oc3cccc(Cl)c3)cc2)n1	0.009
Cc1cc(C(=O)c2ccccc2)c(C)n1-c1ccc(-c2nnn(C(=O)N(C)C)n2)cc1	0.016
CN(C)C(=O)n1nnc(-c2ccc(Oc3cccc(F)c3)cc2)n1	0.01
CN(C)C(=O)n1nnc(-c2ccc(Cn3ccc4ccccc43)cc2)n1	0.088
CN(C)C(=O)n1nnc(-c2ccc(Oc3ccc(Cl)c(Cl)c3)cc2)n1	0.011
CN(C)C(=O)n1nnc(-c2ccc(Oc3ccc(Cl)cc3)cc2)n1	0.016
Cc1ccc(C)n1-c1ccc(-c2nnn(C(=O)N(C)C)n2)cc1	0.009
O=C(CCCCCc1ccccc1)c1nc2ncccc2o1	0.004
CN(C)C(=O)n1nnnc1Cc1ccc(-c2ccccc2)cc1	0.005
CC(=O)c1cc(C)n(-c2ccc(-c3nnn(C(=O)N(C)C)n3)cc2)c1C	0.009
COc1cccc(Oc2ccc(-c3nnn(C(=O)N(C)C)n3)cc2)c1	0.015
CN(C)C(=O)n1nnc(Cc2ccc(-c3ccccc3)cc2)n1	0.012
CC(C)N(C(=O)n1nnc(-c2ccc(Oc3ccccc3)cc2)n1)C(C)C	> 10
Cc1cc(C(=O)c2ccc(-c3ccccc3)cc2)c(C)n1-c1ccc(-c2nnn(C(=O)N(C)C)n2)cc1	0.04
O=C1C=CC(=O)N1Cc1ccc(Oc2ccccc2)cc1	4.9

SMILES	IC50 [µM]
CN(C)C(=O)n1nnc(-c2ccc(-n3cccn3)cc2)n1	0.008
CN(C)C(=O)n1nnc(-c2ccc(Oc3ccc(F)cc3)cc2)n1	0.014
CN(C)C(=O)n1nnc(Cc2ccc(Oc3ccccc3)cc2)n1	0.009
CN(C)C(=O)n1nnc(-c2ccc(-n3ccc4ccccc43)cc2)n1	0.012
CN(C)C(=O)n1nnc(-c2ccc(Oc3ccccc3)cc2)n1	0.012
O=C1C=CC(=O)N1c1ccc(Oc2ccccc2)cc1	5.3
CN(C)C(=O)n1nnnc1-c1ccc(Oc2ccccc2)cc1	0.007
COc1nn(-c2ccc(Oc3ccccc3)cc2)c(=O)o1	0.72
COc1ccc(Oc2ccc(-c3nnn(C(=O)N(C)C)n3)cc2)cc1	0.013
Cc1ccc(C)n1Cc1ccc(-c2nnn(C(=O)N(C)C)n2)cc1	0.14
COc1nn(-c2ccc(NC(=O)OCc3ccccc3)c(C)c2)c(=O)o1	1.3
CN(C)C(=O)n1nnc(-c2ccc(-n3cccc3)cc2)n1	0.005
Cc1cccc(Oc2ccc(-c3nnn(C(=O)N(C)C)n3)cc2)c1	0.013
Cc1cc(C(=O)C(C)(C)C)c(C)n1-c1ccc(-c2nnn(C(=O)N(C)C)n2)cc1	0.029
CCCCCC(=O)c1cc(C)n(-c2ccc(-c3nnn(C(=O)N(C)C)n3)cc2)c1C	0.011
CCN(CC)C(=O)n1nnc(-c2ccc(Oc3ccccc3)cc2)n1	0.037
Cc1ccc(Oc2ccc(-c3nnn(C(=O)N(C)C)n3)cc2)cc1	0.024

biological target: T4, Fatty-acid amide hydrolase 1 (Rattus norvegicus) (UniProt P97612); test: Inhibition of FAAH in Sprague-Dawley rat brain microsomes assessed as N-(2-hydroxyethyl)-4-pyren-1-ylbutanamide conversion to 4-pyren-1-ylbutanoic acid at 10 uM preincubated for 10 mins measured after 45 mins by HPLC analysis relative to control; details: not given
T4 sequence (whole entry): T3 sequence (P97612 whole entry)

SMILES	inhibition
CCCCC/C=C\C/C=C\C/C=C\C/C=C\CCCCN1C(=O)C=CC1=O	38%
O=C(Oc1ccc([N+](=O)[O-])cc1)N1CCC(C(O)(c2ccc3c(c2)OCO3)c2ccc3c(c2)OCO3)CC1	inactive
CC(C)N(C(=O)n1nnc(-c2ccc(Oc3ccccc3)cc2)n1)C(C)C	17%
O=c1[nH]c(-c2ccc(Oc3ccccc3)cc2)no1	inactive
O=C1NCC(c2ccc(Oc3ccccc3)cc2)O1 (configuration not stated)	inactive
O=C(NC1CCCCC1)N1CC(c2ccc(Oc3ccccc3)cc2)OC1=O (configuration not stated)	inactive
O=C1N=C(O)S/C1=C\c1ccc(Oc2ccccc2)cc1	inactive

biological target: T5, Monoglyceride lipase (Homo sapiens) (UniProt Q99685); test: Inhibition of human recombinant MAGL-mediated 1,3-dihydroxypropan-1-yl 4-pyren-1-ylbutanoate conversion to 4-pyren-1-ylbutanoic acid at 10 uM preincubated for 15 mins measured after 45 mins by HPLC analysis relative to control; details: not given
T5 sequence (whole entry): T1 sequence (Q99685 whole entry)

SMILES	inhibition
O=C(CCCCCc1ccccc1)c1nc2ncccc2o1	inactive
CCCCC/C=C\C/C=C\C/C=C\C/C=C\CCCCN1C(=O)C=CC1=O	inactive
CC(C)N(C(=O)n1nnc(-c2ccc(Oc3ccccc3)cc2)n1)C(C)C	inactive
O=C1C=CC(=O)N1Cc1ccc(Oc2ccccc2)cc1	44%
O=c1[nH]c(-c2ccc(Oc3ccccc3)cc2)no1	inactive
O=C1NCC(c2ccc(Oc3ccccc3)cc2)O1 (configuration not stated)	inactive
O=C(NC1CCCCC1)N1CC(c2ccc(Oc3ccccc3)cc2)OC1=O (configuration not stated)	inactive
O=C1N=C(O)S/C1=C\c1ccc(Oc2ccccc2)cc1	inactive

biological target: T6, Monoglyceride lipase (Rattus norvegicus, UniProt Q8R431); test: Inhibition of MAGL in rat cerebellar membranes; assay type: cell membranes, Membrane; details: not given
T6 sequence (Q8R431 whole entry): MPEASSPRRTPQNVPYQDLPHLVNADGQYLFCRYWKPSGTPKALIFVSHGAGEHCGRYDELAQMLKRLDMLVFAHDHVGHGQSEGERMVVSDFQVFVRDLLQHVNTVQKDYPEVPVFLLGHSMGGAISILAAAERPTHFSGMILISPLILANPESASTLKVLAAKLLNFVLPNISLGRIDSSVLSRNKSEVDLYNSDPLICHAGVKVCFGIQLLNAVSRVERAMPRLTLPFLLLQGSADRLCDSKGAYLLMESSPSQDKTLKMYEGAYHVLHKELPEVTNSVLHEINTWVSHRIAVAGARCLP

SMILES	IC50 [µM]
CCCCC/C=C\C/C=C\C/C=C\C/C=C\CCCCN1C(=O)C=CC1=O	0.14

biological target: T6, Monoglyceride lipase; test: Inhibition of rat MAGL expressed in monkey COS7 cells; assay type: cell-based, COS-7; details: not given

SMILES	IC50 [µM]
O=C(Oc1ccc([N+](=O)[O-])cc1)N1CCC(C(O)(c2ccc3c(c2)OCO3)c2ccc3c(c2)OCO3)CC1	0.025

species: Sus scrofa; test: Inhibition of cytosolic phospholipase A2alpha in porcine platelets assessed as 1-stearoyl-2-arachidonoyl-sn-glycero-3-phosphocholine conversion to arachidonic acid at 10 uM by HPLC analysis; details: not given

SMILES	inhibition
CN(C)C(=O)n1nnnc1Cc1ccc(Oc2ccccc2)cc1	inactive
CN(C)C(=O)n1nnnc1Cc1ccc(-c2ccccc2)cc1	inactive
CN(C)C(=O)n1nnc(Cc2ccc(-c3ccccc3)cc2)n1	inactive
CN(C)C(=O)n1nnc(Cc2ccc(Oc3ccccc3)cc2)n1	inactive
CN(C)C(=O)n1nnc(-c2ccc(Oc3ccccc3)cc2)n1	inactive
CN(C)C(=O)n1nnnc1-c1ccc(Oc2ccccc2)cc1	inactive

biological target: T1, Monoglyceride lipase; test: Inhibition of human MAGL expressed in Escherichia coli using 6-methoxy-4-methylcoumarin ester as substrate after 3 hrs by mass spectroscopic analysis; details: not given

SMILES	IC50 [µM]
CCCCC/C=C\C/C=C\C/C=C\C/C=C\CCCCN1C(=O)C=CC1=O	2.8

biological target: T1, Monoglyceride lipase; test: Inhibition of MAGL (unknown origin); details: not given

SMILES	IC50 [µM]
COc1nn(-c2ccc(Oc3ccccc3)cc2)c(=O)o1	0.078
COc1nn(-c2ccc(NC(=O)OCc3ccccc3)c(C)c2)c(=O)o1	0.092

biological target: T1, Monoglyceride lipase; test: Inhibition of MAGL (unknown origin) using 4-nitrophenylacetate as substrate; details: not given

SMILES	IC50 [µM]
COc1nn(-c2ccc(NC(=O)OCc3ccccc3)c(C)c2)c(=O)o1	0.4
